{"source": "patent US7312244B2", "about": "“Polyamine analog-amino acid conjugates useful as anticancer agents” (Cellgate, Inc., priority 1999, dated 2007)", "type_in_all_cases": "cell-based", "key": {"[1]": {"system": "LnCap human prostate cancer cell line", "test": "MTT assay, percent cell survival, LnCap", "details": "LnCap cells, six days after drug treatment, in µM (unit assumed)", "description": "(§1) Polyamine- and polyamine analog-amino acid conjugates of the invention were tested for their ability to inhibit growth of various cancer cell lines. The procedures used for testing activity are similar to those used in International Patent Application WO 00/66587 and U.S. Pat. No. 5,889,061 and are described below.\n(§2) Human breast cancer cell line MCF7 was grown in Richter's Improved Modified Eagle's Medium supplemented with 10% fetal bovine serum (FBS) and 2.2 g/L sodium bicarbonate. Human brain tumor cell line U251 MG-NCI was grown in Dulbecco's Modified Eagle's Medium supplemented with 10% FBS. Human lung cancer cell line A549 was grown in Ham's F-12K medium (Cellgro, Mediatech, Inc., Va.), supplemented with 10% FBS and 2 mM L-glutamine. Human colon cancer cell line HT129 was cultured in McCoy's 5A medium (Gibco, BRL, Gaithersburg, Md.) supplemented with 10% FBS. Human prostate cancer cell lines PC-3, LNCAP and DuPro were grown in RPMI 1640 Medium (Cellgro, Mediatech, Inc., Va.) supplemented with 10% FBS. […]\n(§3) A conventional MTT assay was used to evaluate percent cell survival. […] A microplate reader (“EMAX”-brand, Molecular Devices, Sunnyvale, Calif.) set at 570 nm was used to determine the optical density of the cultures. Results are expressed as a ratio of the optical density in drug-treated wells to the optical density in wells treated with vehicle only."}, "[2]": {"system": "PC-3 human prostate cancer cell line", "test": "MTT assay, percent cell survival, PC-3", "details": "PC-3 cells, six days after drug treatment, in µM (unit assumed)", "description": "as §1, §2, §3"}, "[3]": {"system": "DU145 human prostate cancer cell line", "test": "MTT assay, percent cell survival, DU145", "design": "unit not given beside the values", "details": "DU145 cells, six days after drug treatment", "description": "as §1, §2, §3"}, "[4]": {"system": "DuPro human prostate cancer cell line", "test": "MTT assay, percent cell survival, DuPro", "design": "unit not given beside the values", "details": "DuPro cells, six days after drug treatment", "description": "as §1, §2, §3"}}, "data": [{"smiles": "CCNCCCCNCCCCNCCCCNCCCCNC(=O)CCN", "note": "[SL-11143]", "values": [{"measurement": "ID50 LnCap", "setting": "[1]", "result": 6.4}, {"measurement": "ID50 PC-3", "setting": "[2]", "result": ">31.25"}, {"measurement": "ID50 DU145", "setting": "[3]", "result": 0.06}, {"measurement": "ID50 DuPro", "setting": "[4]", "result": 13.75}]}, {"smiles": "CCNCCCCNCCCCNCCCCNCCCCN(CC)C(=O)C(N)CCC(N)=O", "note": "(stereo not shown) [SL-11165]", "values": [{"measurement": "ID50 LnCap", "setting": "[1]", "result": ">31.25"}, {"measurement": "ID50 PC-3", "setting": "[2]", "result": 4.1}, {"measurement": "ID50 DuPro", "setting": "[4]", "result": ">31.65"}]}]}
